Results taken from US7060872B1, “Method for producing plants having modified canopy size or seedless fruit” (The State of Israel-Ministry of Agriculture & Rural …, priority 1998, dated 2006).
“Also recorded” adds a separate entry of the source.

System: transgenic tomato plants expressing the sps streptavidin construct
Experiment: External biotin application to sps transgenic tomato plants (reversal of degeneration)
Format: in vivo
From the text: The morphology and development of leaves of 6 weeks old plants obtained from non transgenic plant and transgenic tomato plants expressing the sps streptavidin construct and treated daily with biotin were also examined. FIG. 7 depicts the results of this study. […] This degeneration was to a lesser degree in the treated plants. Non transgenic plants both biotin treated and untreated appeared normal.
All of the plants treated with biotin remained green and vital throughout their development.

SMILES: O=C(O)CCCC[C@@H]1SC[C@@H]2NC(=O)N[C@@H]21 [biotin]
- effect of daily biotin spraying after the initial chlorotic symptoms, on leaves (2 μM biotin, daily spray): development of normal leaves
- effect of daily biotin spraying after the initial necrotic lesion (2 μM biotin, daily spray): stopped or prevented further development of degenerative symptoms
- effect of daily biotin spraying after the initial flower buds, on fruit and seed (2 μM biotin, daily spray, plants with seedless fruit): development of normal fruit and the restoration of normal seed development
- effect of spraying biotin on the affected area (6 mg/liter biotin): stopped the degeneration process and plants' growth was restored
- effect of biotin application to T0 plants on germination of their seeds (seeds otherwise non-germinating (FIG. 6)): restored the germination; also recorded: normal germination
- effect of biotin solution on leaf development of a degenerated T0 plant (seen 10 or 20 days after application (FIG. 5)): restored normal leaf development
- tissue degeneration after a single biotin treatment (treated once after 3 weeks, 6 weeks old plants, versus untreated transgenic plants (FIG. 7)): lesser degree
